Assay results taken from ChEMBL document CHEMBL5584264 (Bioorg Med Chem Lett, 2024).
≈ marks a conversion by molar mass, not a printed value.

Assays:
[1] = system: RAW264.7; experiment: Antiinflammatory activity against LPS-induced mouse RAW264.7 cells assessed as cell viability at 10 uM by celltiter-blue cell viability assay; format: functional; conditions: read-out: Activity
[2] = system: RAW264.7; experiment: Antiinflammatory activity against LPS-induced mouse RAW264.7 cells assessed as reduction in nitrite level at 10 uM preincubated with compound for 1 hr followed by LPS-induction and measured after 24 hrs by Fluorometric Assay relative to control; format: functional; set-up: scale not given: the % may be the effect or the level left; conditions: time 25 hrs
[3] = system: RAW264.7; experiment: Antiinflammatory activity against LPS-induced mouse RAW264.7 cells assessed as reduction in nitrite level at 30 uM preincubated with compound for 1 hr followed by LPS-induction and measured after 24 hrs by Fluorometric Assay relative to control; format: functional; set-up: scale not given: the % may be the effect or the level left; conditions: time 25 hrs
[4] = system: RAW264.7; experiment: Antiinflammatory activity against LPS-induced mouse RAW264.7 cells assessed as cell viability at 30 uM by celltiter-blue cell viability assay; format: functional; conditions: read-out: Activity
[5] = system: RAW264.7; experiment: Antiinflammatory activity against LPS-induced mouse RAW264.7 cells assessed as reduction in TNF-alpha level at 1 uM preincubated with compound for 1 hr followed by LPS-induction and measured after 24 hrs by ELISA analysis relative to control; format: functional; set-up: scale not given: the % may be the effect or the level left; conditions: time 25 hrs
[6] = system: RAW264.7; experiment: Antiinflammatory activity against LPS-induced mouse RAW264.7 cells assessed as reduction in TNF-alpha level at 30 uM preincubated with compound for 1 hr followed by LPS-induction and measured after 24 hrs by ELISA analysis relative to control; format: functional; set-up: scale not given: the % may be the effect or the level left; conditions: time 25 hrs
[7] = system: RAW264.7; experiment: Antiinflammatory activity against LPS-induced mouse RAW264.7 cells assessed as cell viability at 1 uM by celltiter-blue cell viability assay; format: functional; conditions: read-out: Activity
[8] = system: RAW264.7; experiment: Antiinflammatory activity against LPS-induced mouse RAW264.7 cells assessed as reduction in nitrite level at 1 uM preincubated with compound for 1 hr followed by LPS-induction and measured after 24 hrs by Fluorometric Assay relative to control; format: functional; set-up: scale not given: the % may be the effect or the level left; conditions: time 25 hrs
[9] = system: RAW264.7; experiment: Antiinflammatory activity against LPS-induced mouse RAW264.7 cells assessed as reduction in TNF-alpha level at 10 uM preincubated with compound for 1 hr followed by LPS-induction and measured after 24 hrs by ELISA analysis relative to control; format: functional; set-up: scale not given: the % may be the effect or the level left; conditions: time 25 hrs
[10] = system: RAW264.7; experiment: Antiinflammatory activity against LPS-induced mouse RAW264.7 cells assessed as reduction in nitrite level preincubated with compound for 1 hr followed by LPS-induction and measured after 24 hrs by Fluorometric Assay; format: functional, cell-based; conditions: dose 1-30 µM, time 25.0 hrs
[11] = Solubility of compound in PBS at pH 7.4 by LC/MS analysis; format: physicochemical
[12] = target: 5-hydroxytryptamine receptor 2B (Homo sapiens, UniProt P41595); experiment: Displacement of [3H]DTG from 5HT2B receptor (unknown origin) assessed as inhibition constant
Sequence of 5-hydroxytryptamine receptor 2B (P41595 whole entry): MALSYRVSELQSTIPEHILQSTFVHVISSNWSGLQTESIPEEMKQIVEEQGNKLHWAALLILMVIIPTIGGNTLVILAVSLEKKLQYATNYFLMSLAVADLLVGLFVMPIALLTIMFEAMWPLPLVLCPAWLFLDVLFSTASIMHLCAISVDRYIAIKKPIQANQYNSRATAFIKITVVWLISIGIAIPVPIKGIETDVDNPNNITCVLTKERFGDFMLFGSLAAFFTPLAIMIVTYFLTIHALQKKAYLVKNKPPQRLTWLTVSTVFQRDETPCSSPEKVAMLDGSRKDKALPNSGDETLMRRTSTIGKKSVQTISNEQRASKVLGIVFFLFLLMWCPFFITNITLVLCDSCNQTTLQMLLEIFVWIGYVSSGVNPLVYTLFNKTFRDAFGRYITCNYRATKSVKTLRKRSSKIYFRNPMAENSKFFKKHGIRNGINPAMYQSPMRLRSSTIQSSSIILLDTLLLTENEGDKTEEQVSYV

[13] = system: RAW264.7; experiment: Antiinflammatory activity against LPS-induced mouse RAW264.7 cells assessed as reduction in IL-6 level at 10 uM preincubated with compound for 1 hr followed by LPS-induction and measured after 24 hrs by ELISA analysis relative to control; format: functional; set-up: scale not given: the % may be the effect or the level left; conditions: time 25 hrs
[14] = target: Protein cereblon/DNA damage-binding protein 1 (Homo sapiens) (UniProt Q96SW2+Q16531); experiment: Displacement of Cy5-tagged thalidomide-like probe from human CRBN/DDB1 complex by fluorescence polarization based CRBN binding assay; format: protein assay
Sequence of Protein cereblon/DNA damage-binding protein 1 (Homo sapiens) (Q16531 2-1140 partner limits assumed): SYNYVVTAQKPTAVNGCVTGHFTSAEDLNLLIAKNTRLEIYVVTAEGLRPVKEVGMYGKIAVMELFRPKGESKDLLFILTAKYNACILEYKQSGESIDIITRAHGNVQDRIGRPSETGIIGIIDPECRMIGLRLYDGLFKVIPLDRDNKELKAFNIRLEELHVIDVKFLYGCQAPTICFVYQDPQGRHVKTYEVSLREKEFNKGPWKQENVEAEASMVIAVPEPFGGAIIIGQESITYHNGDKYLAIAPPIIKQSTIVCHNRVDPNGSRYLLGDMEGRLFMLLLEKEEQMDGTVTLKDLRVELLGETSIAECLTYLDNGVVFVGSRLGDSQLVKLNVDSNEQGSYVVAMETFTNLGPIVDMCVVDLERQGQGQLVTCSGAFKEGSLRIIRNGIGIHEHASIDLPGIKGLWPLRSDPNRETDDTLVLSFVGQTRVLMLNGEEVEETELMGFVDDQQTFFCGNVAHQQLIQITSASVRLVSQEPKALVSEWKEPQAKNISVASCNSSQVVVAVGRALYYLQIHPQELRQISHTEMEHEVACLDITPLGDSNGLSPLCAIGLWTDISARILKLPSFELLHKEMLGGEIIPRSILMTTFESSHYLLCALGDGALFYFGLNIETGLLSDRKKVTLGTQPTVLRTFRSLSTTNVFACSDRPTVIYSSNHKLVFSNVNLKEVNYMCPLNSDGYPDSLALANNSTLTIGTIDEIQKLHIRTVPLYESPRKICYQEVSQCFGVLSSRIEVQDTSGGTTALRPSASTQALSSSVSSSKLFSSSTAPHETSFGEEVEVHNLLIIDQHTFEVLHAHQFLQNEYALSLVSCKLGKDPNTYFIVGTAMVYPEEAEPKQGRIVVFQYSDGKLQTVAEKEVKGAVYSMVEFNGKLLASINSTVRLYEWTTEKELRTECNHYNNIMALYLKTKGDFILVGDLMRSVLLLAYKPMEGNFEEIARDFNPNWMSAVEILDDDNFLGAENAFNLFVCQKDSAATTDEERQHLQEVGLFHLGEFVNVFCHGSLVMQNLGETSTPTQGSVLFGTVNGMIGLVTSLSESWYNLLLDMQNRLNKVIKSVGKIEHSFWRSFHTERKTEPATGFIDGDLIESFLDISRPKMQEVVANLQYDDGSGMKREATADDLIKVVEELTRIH
Sequence of Protein cereblon/DNA damage-binding protein 1 (Homo sapiens) (Q96SW2 whole entry): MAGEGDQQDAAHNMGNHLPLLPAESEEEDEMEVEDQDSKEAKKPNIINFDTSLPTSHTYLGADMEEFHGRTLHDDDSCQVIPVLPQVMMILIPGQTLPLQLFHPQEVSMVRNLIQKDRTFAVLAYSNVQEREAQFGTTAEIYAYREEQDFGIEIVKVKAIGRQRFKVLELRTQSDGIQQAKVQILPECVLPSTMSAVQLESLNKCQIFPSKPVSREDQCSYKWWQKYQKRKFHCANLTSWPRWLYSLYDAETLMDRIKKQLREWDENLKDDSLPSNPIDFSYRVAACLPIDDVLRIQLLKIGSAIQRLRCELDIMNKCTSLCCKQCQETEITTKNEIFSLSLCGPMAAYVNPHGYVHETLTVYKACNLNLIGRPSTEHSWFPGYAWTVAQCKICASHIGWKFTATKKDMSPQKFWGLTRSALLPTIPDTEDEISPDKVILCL

[15] = system: RAW264.7; experiment: Antiinflammatory activity against LPS-induced mouse RAW264.7 cells assessed as reduction in IL-6 level at 1 uM preincubated with compound for 1 hr followed by LPS-induction and measured after 24 hrs by ELISA analysis relative to control; format: functional; set-up: scale not given: the % may be the effect or the level left; conditions: time 25 hrs
[16] = target: Sigma intracellular receptor 2 (Homo sapiens, UniProt Q5BJF2); experiment: Displacement of [3H]DTG from sigma-2 receptor (unknown origin) assessed as inhibition constant
Sequence of Sigma intracellular receptor 2 (Q5BJF2 whole entry): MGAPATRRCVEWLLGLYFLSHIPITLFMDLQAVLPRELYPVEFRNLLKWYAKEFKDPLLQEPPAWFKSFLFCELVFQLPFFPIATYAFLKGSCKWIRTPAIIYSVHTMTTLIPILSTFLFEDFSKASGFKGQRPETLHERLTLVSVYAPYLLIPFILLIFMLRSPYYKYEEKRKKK

[17] = system: RAW264.7; experiment: Antiinflammatory activity against LPS-induced mouse RAW264.7 cells assessed as reduction in IL-6 level at 30 uM preincubated with compound for 1 hr followed by LPS-induction and measured after 24 hrs by ELISA analysis relative to control; format: functional; set-up: scale not given: the % may be the effect or the level left; conditions: time 25 hrs
[18] = system: RAW264.7; experiment: Antiinflammatory activity against LPS-induced mouse RAW264.7 cells assessed as reduction in IL-6 level preincubated with compound for 1 hr followed by LPS-induction and measured after 24 hrs by ELISA analysis; format: functional, cell-based; conditions: dose 1-30 µM, time 25.0 hrs
[19] = target: Sigma non-opioid intracellular receptor 1 (Homo sapiens, UniProt Q99720); experiment: Displacement of [3H]DTG from sigma-1 receptor (unknown origin) assessed as inhibition constant
Sequence of Sigma non-opioid intracellular receptor 1 (Q99720 whole entry): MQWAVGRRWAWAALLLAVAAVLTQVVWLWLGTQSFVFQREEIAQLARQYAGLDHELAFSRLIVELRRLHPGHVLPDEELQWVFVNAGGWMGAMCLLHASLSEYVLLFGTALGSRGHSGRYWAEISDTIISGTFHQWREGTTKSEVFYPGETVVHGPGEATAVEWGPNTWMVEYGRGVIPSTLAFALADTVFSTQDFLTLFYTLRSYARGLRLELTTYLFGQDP

[20] = target: 5-hydroxytryptamine receptor 2A (Homo sapiens, UniProt P28223); experiment: Displacement of [3H]DTG from 5HT2A receptor (unknown origin) assessed as inhibition constant
Sequence of 5-hydroxytryptamine receptor 2A (P28223 whole entry): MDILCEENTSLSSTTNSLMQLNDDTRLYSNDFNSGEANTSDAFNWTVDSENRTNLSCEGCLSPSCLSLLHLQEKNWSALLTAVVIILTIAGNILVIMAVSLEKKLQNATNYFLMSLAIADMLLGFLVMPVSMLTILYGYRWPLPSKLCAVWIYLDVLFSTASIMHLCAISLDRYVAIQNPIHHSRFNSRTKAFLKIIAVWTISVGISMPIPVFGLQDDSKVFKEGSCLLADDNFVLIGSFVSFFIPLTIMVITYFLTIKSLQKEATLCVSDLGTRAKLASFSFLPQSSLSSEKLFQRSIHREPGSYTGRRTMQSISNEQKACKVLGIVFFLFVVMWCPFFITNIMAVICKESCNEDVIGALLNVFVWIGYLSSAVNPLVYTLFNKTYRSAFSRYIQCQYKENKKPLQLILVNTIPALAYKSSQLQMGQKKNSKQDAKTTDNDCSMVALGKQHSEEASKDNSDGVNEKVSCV

[21] = target: Serotonin 3 (5-HT3) receptor; experiment: Displacement of [3H]DTG from 5HT3 receptor (unknown origin) assessed as inhibition constant; format: protein-complex assay, Homo sapiens

SMILES: CCN1CCCC(N2C(=O)c3cccc(N)c3C2=O)C1 (racemic)
- viability at 10 µM [1]: 99%
- Activity [2]: 101%
- Activity [3]: 90%
- viability at 30 µM [4]: 97%
- Activity [5]: 115%
- Activity [6]: 102%
- viability at 1 µM [7]: 101%
- Activity [8]: 101%
- Activity [9]: 112%

SMILES: CN1CCC[C@H](N2C(=O)c3cccc(N)c3C2=O)C1
- viability at 10 µM [1]: 111%
- Activity [10]: Dose-Dependent Effect
- Activity [6]: 106%
- viability at 1 µM [7]: 110%

SMILES: Nc1cccc2c1C(=O)N(C1CCC(=O)NC1=O)C2=O (stereo not given) [POMALIDOMIDE]
- solubility [11]: 85 µM (≈ 23.2 µg/mL)

SMILES: CC(C)N1CCC[C@H](N2C(=O)c3cccc(N)c3C2=O)C1
- viability at 10 µM [1]: 100%
- Activity [2]: 100%
- Activity [3]: 108%
- viability at 30 µM [4]: 102%
- Activity [5]: 107%
- Activity [6]: 115%
- viability at 1 µM [7]: 100%
- Activity [8]: 112%
- Activity [9]: 115%

SMILES: Nc1cccc2c1C(=O)N(C1CCCNC1)C2=O (racemic)
- viability at 10 µM [1]: 99%
- Ki [12]: 0.561 µM
- Activity [2]: 91%
- Activity [3]: 83%
- Activity [10]: Dose-Dependent Effect
- Activity [13]: 88%
- viability at 30 µM [4]: 105%
- Activity [14]: Dose-Dependent Effect
- Activity [6]: 104%
- viability at 1 µM [7]: 100%
- Activity [8]: 97%
- Activity [15]: 83%
- Ki [16]: 2.2 µM
- Activity [17]: 82%

SMILES: CN1CCC[C@@H](N2C(=O)c3cccc(N)c3C2=O)C1
- viability at 10 µM [1]: 100%
- Activity [2]: 101%
- Activity [3]: 95%
- Activity [5]: 108%
- viability at 1 µM [7]: 100%
- Activity [9]: 100%

SMILES: CN1CCCC(N2C(=O)c3cccc(N)c3C2=O)C1 (racemic)
- viability at 10 µM [1]: 95%
- Activity [2]: 105%
- Activity [14]: Dose-Dependent Effect
- Activity [5]: 111%
- Activity [9]: 116%

SMILES: Nc1cccc2c1C(=O)N(C1CCCN(C(=O)C3CC3)C1)C2=O (stereo not given)
- viability at 10 µM [1]: 102%
- Activity [2]: 94%
- Activity [3]: 89%
- viability at 30 µM [4]: 109%
- Activity [6]: 100%
- viability at 1 µM [7]: 99%
- Activity [9]: 100%

SMILES: Nc1cccc2c1C(=O)N([C@@H]1CCCNC1)C2=O
- viability at 10 µM [1]: 103%
- Activity [2]: 87%
- Activity [18]: Dose-Dependent Effect
- Activity [3]: 68%
- Activity [10]: Dose-Dependent Effect
- Activity [13]: 72%
- viability at 30 µM [4]: 114%
- Activity [6]: 91%
- viability at 1 µM [7]: 100%
- Activity [15]: 108%
- Activity [17]: 60%
- Activity [9]: 95%

SMILES: CC(=O)N1CCCC(N2C(=O)c3cccc(N)c3C2=O)C1 (stereo not given)
- viability at 10 µM [1]: 103%
- Activity [2]: 88%
- Activity [3]: 81%
- Activity [10]: Dose-Dependent Effect
- Ki [19]: 2.4 µM
- Activity [13]: 106%
- viability at 30 µM [4]: 101%
- Activity [14]: Dose-Dependent Effect
- Activity [5]: 95%
- Activity [6]: 86%
- Ki [20]: 5.2 µM
- viability at 1 µM [7]: 102%
- Activity [8]: 95%
- Activity [15]: 111%
- Ki [16]: 5.2 µM
- Activity [17]: 89%
- Activity [9]: 86%

SMILES: CCN1CCC[C@H](N2C(=O)c3cccc(N)c3C2=O)C1
- viability at 10 µM [1]: 96%
- Activity [2]: 120%
- Activity [3]: 114%
- viability at 30 µM [4]: 94%
- Activity [5]: 114%
- Activity [6]: 109%
- viability at 1 µM [7]: 100%
- Activity [8]: 115%
- Activity [9]: 111%

SMILES: CC(C)N1CCC[C@@H](N2C(=O)c3cccc(N)c3C2=O)C1
- viability at 10 µM [1]: 99%
- Activity [2]: 99%
- Activity [3]: 153%
- viability at 30 µM [4]: 90%
- Activity [5]: 106%
- Activity [6]: 114%
- viability at 1 µM [7]: 96%
- Activity [8]: 126%
- Activity [9]: 110%

SMILES: Nc1cccc2c1C(=O)N([C@H]1CCCNC1)C2=O
- viability at 10 µM [1]: 102%
- Activity [18]: Dose-Dependent Effect
- Activity [3]: 83%
- Activity [10]: Dose-Dependent Effect
- Activity [13]: 102%
- viability at 30 µM [4]: 103%
- Activity [6]: 94%
- viability at 1 µM [7]: 104%
- Activity [8]: 110%
- Activity [17]: 94%
- Activity [9]: 94%

SMILES: CCN1CCC[C@@H](N2C(=O)c3cccc(N)c3C2=O)C1
- viability at 10 µM [1]: 104%
- Activity [2]: 93%
- Activity [3]: 80%
- Activity [10]: Dose-Dependent Effect
- viability at 30 µM [4]: 102%
- Activity [5]: 92%
- Activity [6]: 96%
- viability at 1 µM [7]: 106%
- Activity [8]: 93%
- Activity [9]: 97%

SMILES: Nc1cccc2c1C(=O)N(C1CCCN(C(=O)C(F)(F)F)C1)C2=O (stereo not given)
- viability at 10 µM [1]: 103%
- Activity [2]: 90%
- Activity [3]: 100%
- viability at 30 µM [4]: 99%
- Activity [6]: 94%
- viability at 1 µM [7]: 103%
- Activity [8]: 92%

SMILES: CC(C)N1CCCC(N2C(=O)c3cccc(N)c3C2=O)C1 (racemic)
- viability at 10 µM [1]: 100%
- Activity [2]: 100%
- Activity [3]: 123%
- viability at 30 µM [4]: 95%
- Activity [5]: 100%
- Activity [6]: 103%
- viability at 1 µM [7]: 105%
- Activity [8]: 109%
- Activity [9]: 109%

SMILES: CS(=O)(=O)N1CCCC(N2C(=O)c3cccc(N)c3C2=O)C1 (stereo not given)
- viability at 10 µM [1]: 103%
- Ki [12]: > 10 µM
- Activity [2]: 103%
- Activity [3]: 95%
- Activity [13]: 112%
- viability at 30 µM [4]: 103%
- Activity [14]: Dose-Dependent Effect
- Activity [5]: 98%
- Activity [6]: 96%
- Ki [20]: > 10 µM
- viability at 1 µM [7]: 103%
- Activity [8]: 92%
- Activity [15]: 111%
- Activity [17]: 116%
- Activity [9]: 99%
- Ki [21]: > 10 µM
